# From paper PMC2248166, “Quantitative peptide binding motifs for 19 human and mouse MHC class I molecules derived using positional scanning combinatorial peptide libraries” (Immunome Research, 2008)
# Tests used:
# HLA B*1501 = HLA B*1501 (Homo sapiens, UniProt P01889, A329T/A93T/A95T/C349S/D201E/D98Y/E187L/E204Q/E69M/E70A/K202T/N87E/Q94N/R155S/R180W/S121R/S35A/S48A/V306I/V36M/Y140S/Y91S); assay: biochemical; assay type: binding
# HLA A*6802 = HLA A*6802 (Homo sapiens, UniProt P04439, A269V/D140Y/D185E/E176V/E277Q/E87N/F33Y/G231S/I121R/I166T/I218V/L180W/L300P/L318F/N151K/P208A/P217A/Q86R/R138H/R169H/S129P/T345S/V36M); assay type: binding
# HLA A*3201 = HLA A*3201 (Homo sapiens, UniProt P04439, A270S/D101S/D185E/E176V/E277Q/F133L/G103R/G107R/G231S/H175R/I121M/I218V/I322F/K168Q/L105A/L300P/L318F/M331R/P208A/P217A/Q94H/R106L/R138Q/S129P/T104I/T323A/T345S/V100E/V321M/V358M); assay: biochemical; assay type: binding
# HLA B*5802 = HLA B*5802 (Homo sapiens, UniProt P01889, A329T/C349S/D201E/D98Y/E176V/E187L/E204Q/E69T/G107R/I218V/I90N/K202T/L105A/N104I/N87E/Q89R/Q94S/R106L/R155S/R180L/R86G/S101N/S121W/S35A/S48A/V127L/V306I/V36M/Y140S/Y91M); assay type: binding
# H-2 K^k = H-2 K^k (Mus musculus, UniProt P04223); assay type: binding
# H-2 K^k, sequence (P01887 21-119): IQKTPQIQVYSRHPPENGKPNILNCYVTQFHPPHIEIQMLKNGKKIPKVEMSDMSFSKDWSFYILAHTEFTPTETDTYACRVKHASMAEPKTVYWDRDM
# H-2 K^k, sequence (P04223 22-369): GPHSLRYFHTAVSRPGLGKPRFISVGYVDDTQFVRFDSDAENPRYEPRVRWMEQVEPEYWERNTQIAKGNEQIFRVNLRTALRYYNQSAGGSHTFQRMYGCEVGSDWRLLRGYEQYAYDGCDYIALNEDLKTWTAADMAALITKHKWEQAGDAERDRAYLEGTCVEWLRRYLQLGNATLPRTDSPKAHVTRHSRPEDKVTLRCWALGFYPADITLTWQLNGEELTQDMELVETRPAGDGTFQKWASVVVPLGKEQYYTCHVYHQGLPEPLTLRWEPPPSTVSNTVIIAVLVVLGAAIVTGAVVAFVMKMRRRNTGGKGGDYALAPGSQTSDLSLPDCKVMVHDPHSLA
# H-2 D^d = H-2 D^d (Mus musculus, UniProt P01900); assay type: binding
# H-2 D^d, sequence (P01900 whole entry, looked up): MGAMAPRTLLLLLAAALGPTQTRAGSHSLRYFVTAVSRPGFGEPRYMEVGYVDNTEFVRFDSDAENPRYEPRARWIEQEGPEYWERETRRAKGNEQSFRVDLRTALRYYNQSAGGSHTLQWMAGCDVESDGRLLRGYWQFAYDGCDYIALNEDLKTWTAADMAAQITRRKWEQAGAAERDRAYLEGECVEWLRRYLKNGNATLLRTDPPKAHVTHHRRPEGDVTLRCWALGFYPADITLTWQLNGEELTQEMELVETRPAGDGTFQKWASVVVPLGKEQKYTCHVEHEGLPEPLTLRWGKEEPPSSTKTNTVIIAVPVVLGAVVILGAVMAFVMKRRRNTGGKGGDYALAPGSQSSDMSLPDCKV
# H-2 D^b = H-2 D^b (Mus musculus, UniProt P01899); assay type: binding
# H-2 D^b, sequence (P01887 21-119): as the sequence (P01887 21-119) above
# H-2 D^b, sequence (P01899 25-362): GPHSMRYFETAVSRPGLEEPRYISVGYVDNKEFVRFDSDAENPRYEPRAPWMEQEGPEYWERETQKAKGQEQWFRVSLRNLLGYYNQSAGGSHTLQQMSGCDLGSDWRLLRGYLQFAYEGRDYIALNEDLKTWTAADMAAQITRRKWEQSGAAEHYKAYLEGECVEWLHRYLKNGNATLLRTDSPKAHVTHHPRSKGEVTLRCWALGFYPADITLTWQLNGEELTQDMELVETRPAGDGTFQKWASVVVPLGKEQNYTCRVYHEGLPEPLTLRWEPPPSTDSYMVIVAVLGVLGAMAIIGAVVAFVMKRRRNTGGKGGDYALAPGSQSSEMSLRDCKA
# HLA A*3001 = HLA A*3001 (Homo sapiens, UniProt P04439, D140H/D185E/E176W/F33S/G80R/H175R/K168Q/R138E/R41S); assay: biochemical; assay type: binding
# HLA B*5801 = HLA B*5801 (Homo sapiens, UniProt P01889, A329T/C349S/D201E/D98Y/E176V/E187L/E204Q/E69T/G107R/I218V/I90N/K202T/L105A/L119I/N104I/N87E/Q89R/Q94S/R106L/R155S/R180L/R86G/S101N/S121R/S35A/S48A/T118I/V127L/V306I/V36M/Y140S/Y91M); assay type: binding
# HLA B*0801 = HLA B*0801 (Homo sapiens, UniProt P01889, A93T/A95T/D138N/E176V/E187T/K202T/Q94N/R180D/S35A/V36M/Y33D/Y91F); assay: biochemical; assay type: binding
# HLA A*0201 = HLA A*0201 (Homo sapiens, UniProt P04439, D140Y/D185E/D98H/E176V/E277Q/G131W/G231S/I119V/I121R/I166T/I218V/L300P/L318F/N151K/N90K/P208A/P217A/Q86G/Q94H/R138H/R169H/T345S); details: positional scanning combinatorial 9-mer library; normalized to 1.0 for the best residue at each position
# HLA B*5101 = HLA B*5101 (Homo sapiens, UniProt P01889, A329T/A93T/A95T/C349S/D138N/D201E/D98Y/E187L/E204Q/E69T/G107R/I218V/K202T/L105A/L119W/N104I/Q94N/R106L/R155S/R180L/S101N/S121T/S35A/S48A/V306I/V36M/Y195H/Y91F); assay type: binding
# HLA B*2705 = HLA B*2705 (Homo sapiens, UniProt P01889, D138H/D201E/E176V/E204Q/G107R/H137Y/K202T/N104T/N87E/Q56L/Q94K/R106L/R155S/R180L/S101D/S121N/S48T/Y140D/Y33H/Y91C); assay type: binding; details: positional scanning combinatorial 9-mer library; normalized to 1.0 for the best residue at each position
# HLA B*0702 = HLA B*0702 (Homo sapiens, UniProt P01889); assay type: binding; details: positional scanning combinatorial 9-mer library; normalized to 1.0 for the best residue at each position
# HLA B*1503 = HLA B*1503 (Homo sapiens, UniProt P01889, A329T/A93T/A95T/C349S/D201E/D98Y/E187L/E204Q/K202T/N87E/Q94N/R155S/R180L/S121R/S35A/V306I/V36M/Y140S/Y91S); assay: biochemical; assay type: binding
# HLA B*5401 = HLA B*5401 (Homo sapiens, UniProt P01889, A329T/C349S/D138N/D201E/E176V/E187T/E204Q/E69G/I76V/K202T/L119W/R155S/R180L/S121T/S35A/S48A/V127L/V306I/V36M/Y140L); assay type: binding
# HLA B*3501 = HLA B*3501 (Homo sapiens, UniProt P01889, A329T/A93T/A95T/C349S/D201E/D98Y/E176V/E187L/E204Q/E69T/I218V/K202T/L119I/Q94N/R155S/R180L/S121R/S35A/S48A/T118I/V127L/V306I/V36M/Y140S/Y91F); assay type: binding
# HLA B*5301 = HLA B*5301 (Homo sapiens, UniProt P01889, A329T/A93T/A95T/C349S/D201E/D98Y/E176V/E187L/E204Q/E69T/G107R/I218V/K202T/L105A/L119I/N104I/Q94N/R106L/R155S/R180L/S101N/S121R/S35A/S48A/T118I/V127L/V306I/V36M/Y140S/Y91F); assay type: binding
sequence,measurement,setting,value
AXXXXXXXX [3064.0001],"Normalized average relative binding affinity (ARB), HLA B*1501",HLA B*1501,0.31
same,"Normalized average relative binding affinity (ARB), HLA A*6802",HLA A*6802,0.031
same,"Normalized average relative binding affinity (ARB), HLA A*3201",HLA A*3201,0.36
same,"Normalized average relative binding affinity (ARB), HLA B*5802",HLA B*5802,0.065
same,"Normalized average relative binding affinity (ARB), H-2 Kk",H-2 K^k,0.18
same,"Normalized average relative binding affinity (ARB), H-2 Dd",H-2 D^d,0.20
same,"Normalized average relative binding affinity (ARB), H-2 Db",H-2 D^b,0.14
same,"Normalized average relative binding affinity (ARB), HLA A*3001",HLA A*3001,0.18
same,"Normalized average relative binding affinity (ARB), HLA B*5801",HLA B*5801,0.33
same,"Normalized average relative binding affinity (ARB), HLA B*0801",HLA B*0801,0.11
same,"Normalized average relative binding affinity (ARB), HLA A*0201",HLA A*0201,0.11
same,"Normalized average relative binding affinity (ARB), HLA B*5101",HLA B*5101,0.071
same,"Normalized average relative binding affinity (ARB), HLA B*2705",HLA B*2705,0.35
same,"Normalized average relative binding affinity (ARB), HLA B*0702",HLA B*0702,0.78
same,"Normalized average relative binding affinity (ARB), HLA B*1503",HLA B*1503,0.47
same,"Normalized average relative binding affinity (ARB), HLA B*5401",HLA B*5401,0.014
same,"Normalized average relative binding affinity (ARB), HLA B*3501",HLA B*3501,0.042
same,"Normalized average relative binding affinity (ARB), HLA B*5301",HLA B*5301,0.0057
